{
  "source": "patent US11351142B2",
  "about": "“Composition and method for treating neuronal ceroid lipofuscinosis” (Rush University Medical Center, priority 2012, dated 2022)",
  "type_in_all_cases": "cell-based",
  "key": {"TPP1 [1]": {"system": "TPP1", "test": "Western blot for TPP1 in mouse primary neurons", "settings": "neurons from cortex, hippocampus, striatum; 25 μM gemfibrozil, 24 hrs", "procedure": "Fetal (E18-E16) mouse neurons were prepared as previously described (23) with modifications. Whole brains were removed and cortical, hippocampal, striatal and cerebellar fractions were dissected in serum free Neurobasal media. The cells were washed by centrifugation three times at 1200 rpm for 10 min, the pellet dissociated and the cells plated at 10% confluence in 8-well chamber slides pre-treated for >2 hr with Poly-D-Lysine (Sigma, St. Louis, Mo.). After 4 min, the non-adherent cell suspension was aspirated and […] complete Neurobasal media (Invitrogen) supplemented with 2% B27 was added to each well. The cells were incubated for 4 days prior to experimentation. […] The cells were stimulated with gemfibrozil in Neurobasal media supplemented with 2% B27 minus antioxidants (Invitrogen) for 24 hr prior to methanol fixation and immunostaining.\nWestern blotting was conducted as described earlier (27,28) with modifications. Briefly, cells were scraped in double-distilled H20 and sodium dodecyl sulfate (SDS), electrophoresed on NuPAGE® Novex® 4-12% Bis-Tris gels (Invitrogen) and proteins transferred onto a nitrocellulose membrane (Bio-Rad) using the Thermo-Pierce Fast Semi-Dry Blotter. […]\nProtein blots were analyzed using ImageJ (NIH, Bethesda, Md.) and bands were normalized to their respective β-actin loading controls. […]"}, "lysosomal genes [2]": {"system": "lysosomal genes", "test": "RT-PCR for lysosomal genes in human astrocytes", "settings": "25 μM gemfibrozil, serum free", "method": "(§2) (FIG. 13A) Quantitative real-time PCR for lysosomal genes in mouse astrocytes treated with 25 μM gemfibrozil for different time points under serum free conditions. […] (FIG. 13B) RT-PCR for lysosomal genes in human astrocytes treated under same condition. […] Results represent 3 independent experiments."}, "PPARα/RXRα heterodimer": {"biological_target": "T1, PPARα/RXRα heterodimer (Mus musculus, UniProt P23204+P28700)", "T1 construct": "endogenous in cells; host or cells: mouse primary astrocytes (nuclear extract)", "T1 sequence (P23204 1-468)": "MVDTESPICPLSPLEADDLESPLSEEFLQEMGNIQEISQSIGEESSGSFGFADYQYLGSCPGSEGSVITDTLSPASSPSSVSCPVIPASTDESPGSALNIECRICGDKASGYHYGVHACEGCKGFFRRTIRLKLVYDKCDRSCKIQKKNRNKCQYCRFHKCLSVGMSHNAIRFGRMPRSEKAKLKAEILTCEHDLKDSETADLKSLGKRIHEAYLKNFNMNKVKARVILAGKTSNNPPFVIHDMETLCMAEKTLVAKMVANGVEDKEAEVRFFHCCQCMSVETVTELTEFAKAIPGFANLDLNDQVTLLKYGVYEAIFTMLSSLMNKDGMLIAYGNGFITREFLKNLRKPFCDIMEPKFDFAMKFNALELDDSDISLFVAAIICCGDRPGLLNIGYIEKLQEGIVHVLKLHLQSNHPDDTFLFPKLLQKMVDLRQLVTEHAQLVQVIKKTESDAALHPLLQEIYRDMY", "T1 sequence (P28700 1-467)": "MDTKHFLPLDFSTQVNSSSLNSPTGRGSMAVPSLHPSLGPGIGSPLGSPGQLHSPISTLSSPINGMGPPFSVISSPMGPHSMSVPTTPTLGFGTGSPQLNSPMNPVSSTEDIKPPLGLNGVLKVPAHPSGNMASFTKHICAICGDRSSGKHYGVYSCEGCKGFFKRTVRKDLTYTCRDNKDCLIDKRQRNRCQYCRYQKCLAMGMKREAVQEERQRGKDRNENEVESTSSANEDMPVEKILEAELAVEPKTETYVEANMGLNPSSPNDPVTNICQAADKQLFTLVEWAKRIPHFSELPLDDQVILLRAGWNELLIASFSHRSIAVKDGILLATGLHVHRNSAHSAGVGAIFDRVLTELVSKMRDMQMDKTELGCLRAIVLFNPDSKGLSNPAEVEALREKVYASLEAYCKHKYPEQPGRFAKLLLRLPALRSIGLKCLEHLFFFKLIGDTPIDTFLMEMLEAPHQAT", "test": "Co-immunoprecipitation of PPARα and RXRα from nuclear extract of mouse astrocytes", "settings": "gemfibrozil (10 μM) and RA (0.5 μM) alone and in combination, 6 hrs", "method": "After treatment, cells were washed with PBS, scraped into 1.5 mL tubes and centrifuged in 4° C. for 5 min at 500 rpm. The supernatant was aspirated and the pellet was resuspended in a membrane lysis buffer comprised of (4-(2-hydroxyethyl)-1-piperazineethanesulfonic acid) (HEPES, pH 8.0), MgCl2, KCl, dithiothreitol (DTT) and protease/phosphatase inhibitors, vortexed and centrifuged in 4° C. at 15,000 rpm for 3 minutes. Again, the supernatant was aspirated and the pellet was resuspended in a high salt, nuclear envelope lysis buffer comprised of HEPES (pH 8.0), MgCl2, glycerol, NaCl, ethylenediaminetetraacetic acid (EDTA), DTT and protease/phosphatase inhibitors, rotated vigorously in 4° C. for 30 min and centrifuged in 4° C. at 15,000 rpm for 15 minutes. The resultant nuclear pellet was resuspended in IP buffer and a fraction was kept separately as lysate. The remaining nuclear extract was then precleared with 25 ul of protein A-agarose (50%, v/v). The supernatants were immunoprecipitated with 5 ug of anti-RXRα or anti-PPARα or normal IgG (Santa Cruz Biotechnology, Inc.) overnight at 4 C, followed by incubation with protein A-agarose for 4 hrs at 4° C. Protein A-agarose-antigen-antibody complexes were collected by centrifugation at 12,000 rpm for 60 s at 4° C. […]"}, "TPP1 [3]": {"system": "TPP1", "test": "Immunofluorescence for TPP1 in human primary astrocytes", "settings": "25 μM gemfibrozil and 10 μM fenofibrate, 24 hrs", "procedure": "Following four 15 minute washes with filtered PBS, cells were incubated for 4-5 min with 4′, 6-diamidino-2-phenylindole (DAPI, 1:10,000; Sigma)."}, "Cln3 mRNA": {"system": "Cln3 mRNA", "test": "Cln3 mRNA expression by semi-quantitative RT-PCR in mouse primary astrocytes", "settings": "25 μM gemfibrozil, 2, 6, 12, and 24 hrs", "procedure": "(§1) Astroglia were isolated from mixed glial cultures as described (17,18) according to the procedure of Giulian and Baker (19). Briefly, on day 9, the mixed glial cultures were washed three times with Dulbecco's modified Eagle's medium/F-12 and subjected to shaking at 240 rpm for 2 h at 37° C. on a rotary shaker to remove microglia. After 2 days, the shaking was repeated for 24 h for the removal of oligodendroglia and to ensure the complete removal of all nonastroglial cells. The attached cells were seeded onto new plates for further studies. Total RNA was isolated from mouse primary astrocytes and human primary astrocytes using RNA-Easy Qiagen (Valencia, Calif.) kit following manufactures protocol. Semi-quantitative RT-PCR was carried out as described earlier (24) using oligo (dT) 12-18 as primer and moloney murine leukemia virus reverse transcriptase (MMLV-RT, Invitrogen) in a 20 μl reaction mixture. The resulting cDNA was appropriately amplified using Promega Master Mix (Madison, Wis.) and the following primers (Invitrogen) for murine genes: […]"}, "lysosomal genes [4]": {"system": "lysosomal genes", "test": "Quantitative real-time PCR for lysosomal genes in mouse astrocytes", "settings": "25 μM gemfibrozil, different time points, serum free", "method": "as §2"}, "Cln1 mRNA": {"system": "Cln1 mRNA", "test": "Cln1 mRNA expression by semi-quantitative RT-PCR in mouse primary astrocytes", "settings": "25 μM gemfibrozil, 2, 6, 12, and 24 hrs", "procedure": "as §1"}},
  "data": [
    {"smiles": "Cc1ccc(C)c(OCCCC(C)(C)C(=O)O)c1", "note": "[gemfibrozil]", "values": [
      {"measurement": "increase in TPP1 protein (Western blot, densitometric quantification)", "setting": "TPP1 [1]", "result": "2-3 fold"},
      {"measurement": "lysosomal genes mRNA (RT-PCR)", "setting": "lysosomal genes [2]", "result": "upregulation"},
      {"measurement": "PPARα in immunoblot after immunoprecipitation with RXR Ab", "setting": "PPARα/RXRα heterodimer", "result": "increased abundance of PPARα"},
      {"measurement": "RXR in immunoblot after immunoprecipitation with PPARα Ab, treated vs control", "setting": "PPARα/RXRα heterodimer", "result": "increased presence of RXR"},
      {"measurement": "level of TPP1 protein (immunofluorescence)", "setting": "TPP1 [3]", "result": "considerable increase"},
      {"measurement": "Cln3 mRNA expression", "setting": "Cln3 mRNA", "result": "increase within 12 to 24 h"},
      {"measurement": "lysosomal genes mRNA (quantitative real-time PCR)", "setting": "lysosomal genes [4]", "result": "upregulation"},
      {"measurement": "Cln1 mRNA expression", "setting": "Cln1 mRNA", "result": "increase within 12 to 24 h"}
    ]}
  ]
}
